# Test results published in ChEMBL document CHEMBL1150954, “Isolation and synthesis of an alpha-malamic acid derivative from Justicia ghiesbreghtiana” (J Nat Prod, 1998).
# The source made the active and inactive calls. No cut-off for these calls is given here.
# Tested on: Mycobacterium tuberculosis
# Assay: Antibacterial activity against Mycobacterium tuberculosis
# Assay type: functional, organism-based
smiles,measurement,value
COc1ccc(NC(=O)[C@@H](O)CC(=O)O)cc1OC,Activity,inactive
